Reference: patent publication US20240041042A1, “1-(PYRIDYL)-5-AZINYLPYRAZOLE DERIVATIVES, AND THEIR USE FOR CONTROL OF UNDESIRED PLANT GROWTH” (Bayer Aktiengesellschaft, priority 2020, published 2024)

Experiments:
Format in all cases: in vivo
[1] = system: Verconica persica (VERPE); assay: Pre-emergence herbicidal action against VERPE
In short: (§1)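 Seeds sown in pots and covered with soil; WP or EC formulations sprayed onto the soil surface at 600 l/ha water with 0.5% additive, at 320 g/ha or lower. Greenhouse growth for about 3 weeks, then visual scoring as % effect against untreated controls (100% = plants dead).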

Setaria viridis (SETVI) = assay: Pre-emergence herbicidal action against SETVI
In short: as §1

[2] = system: Matricaria inodora (MATIN); assay: Post-emergence herbicidal action against MATIN
In short: (§2)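 Post-emergence greenhouse spray, one-leaf stage, 600 l/ha water plus 0.5% additive; WP or EC formulations; application rates 320 g/ha or lower. Visual % damage vs untreated controls at ~3 weeks.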

[3] = system: Amaranthus retroflexus (AMARE); assay: Post-emergence herbicidal action against AMARE
In short: as §2

[4] = system: Abutilon theophrasti (ABUTH); assay: Pre-emergence herbicidal action against ABUTH; conditions: 100% = plants have died
In short: as §1

Viola tricolor (VIOTR) [5] = assay: Pre-emergence herbicidal action against VIOTR
In short: as §1

Viola tricolor (VIOTR) [6] = assay: Post-emergence herbicidal action against VIOTR
In short: as §2

Lolium rigidum (LOLRI) = assay: Pre-emergence herbicidal action against LOLRI
In short: as §1

[7] = system: Abutilon theophrasti (ABUTH); assay: Post-emergence herbicidal action against ABUTH; conditions: visual rating about 3 weeks after treatment vs untreated controls (100% = plants have died, 0% = like control plants)
In short: as §2

[8] = system: Verconica persica (VERPE); assay: Post-emergence herbicidal action against VERPE
In short: as §2

[9] = 80 g/ha, visual rating about 3 weeks after treatment vs untreated controls (100% = plants have died, 0% = like control plants)
[10] = 320 g/ha, visual rating about 3 weeks after treatment
[11] = 80 g/ha, scored visually after about 3 weeks vs untreated controls, 0% = like control plants
[12] = Dosage column 320 g/ha (title prints 3200 g/ha), scored visually after about 3 weeks

Structure (SMILES)	Pre-emergence action against VERPE in % ([1]; dosage 80 g/ha)	Pre-emergence action against VERPE in % ([1]; dosage 320 g/ha)	Pre-emergence action against SETVI in % (Setaria viridis (SETVI); dosage 80 g/ha)	Pre-emergence action against SETVI in % (Setaria viridis (SETVI); dosage 320 g/ha)	Post-emergence action against MATIN in % ([2]; dosage 320 g/ha)	Post-emergence action against AMARE in % [3, 9]	Post-emergence action against AMARE in % [3, 10]	Pre-emergence action against ABUTH [4, 11]	Pre-emergence action against ABUTH [4, 12]	Pre-emergence action against VIOTR in % (Viola tricolor (VIOTR) [5]; 320 g/ha, Viola tricolor)	Pre-emergence action against VIOTR in % (Viola tricolor (VIOTR) [5]; dosage 80 g/ha)	Post-emergence action against VIOTR in % (Viola tricolor (VIOTR) [6]; 80 g/ha)	Post-emergence action against VIOTR in % (Viola tricolor (VIOTR) [6]; 320 g/ha)	Pre-emergence action against LOLRI in % (Lolium rigidum (LOLRI); dosage 80 g/ha)	Pre-emergence action against LOLRI in % (Lolium rigidum (LOLRI); dosage 320 g/ha)	Post-emergence action against ABUTH in % ([7]; 320 g/ha)	Post-emergence action against VERPE in % ([8]; 320 g/ha, VERPE)	Post-emergence action against VERPE in % ([8]; dosage 80 g/ha)	Post-emergence action against ABUTH in % ([7]; 80 g/ha)	Post-emergence action against MATIN in % ([2]; dosage 80 g/ha)
COC(=O)C(C)NC(=O)[C@@H](C)Oc1nn(-c2ccccn2)c(-c2cncc(F)c2)c1Cl (stereo partly drawn) [Example I-199]	90%	100%	90%	100%	80%	80%	90%	80%	90%	100%	100%	80%	80%	100%	100%	80%	90%	90%	–	–
COC(=O)C(C)NC(=O)[C@@H](C)Oc1nn(-c2ccccn2)c(-c2cncc(F)c2)c1Br (stereo partly drawn) [Example I-190]	80%	100%	90%	100%	80%	–	80%	–	80%	100%	100%	80%	90%	100%	100%	80%	90%	80%	80%	–
C[C@@H](Oc1nn(-c2ncccc2F)c(-c2ccc(F)nc2)c1Br)C(=O)O [Example I-18]	90%	100%	100%	100%	80%	–	–	80%	90%	100%	100%	–	80%	90%	100%	80%	–	–	–	80%
COC(=O)[C@H](C)COC(=O)COc1nn(-c2ccccn2)c(-c2cncc(F)c2)c1Cl [Example I-192]	–	90%	90%	100%	80%	80%	80%	–	80%	100%	80%	–	80%	80%	100%	80%	80%	80%	–	–
C[C@@H](Oc1nn(-c2ccccn2)c(-c2cncc(F)c2)c1Cl)C(=O)O [Example I-218]	90%	100%	90%	100%	80%	80%	80%	80%	90%	100%	100%	80%	80%	100%	100%	80%	80%	80%	80%	–
COC(=O)[C@@H](C)Oc1nn(-c2ncccc2F)c(-c2ccc(F)nc2)c1C(F)(F)F [Example I-331]	100%	100%	–	90%	80%	80%	80%	80%	90%	100%	100%	80%	80%	90%	100%	90%	90%	90%	90%	80%
